Laboratory results published in patent US20230132582A1, “NOVEL USE OF ASPIRIN COMPOUND IN INCREASING NUCLEIC ACID EXPRESSION” (priority 2020, published 2023).

How the values were obtained:
[1] = system: IDS enzyme activity in brain (AAV9-CB-IDS); assay: IDS enzyme activity in brain of MPSII mice after AAV9-CB-IDS with aspirin pre-treatment (Example 7); format: in vivo, B6N.Cg-Ids^tm1Muen/J mice (MPSII model)
Description: The effects of aspirin on improving the expression of therapeutic transgene in brain were determined. AAV9-CB-IDS vector were produced using methods described in Example 1, except that iduronate 2-sulfatase (IDS) gene expression cassette was inserted between the AAV ITRs. The gene encoding IDS was provided in SEQ ID NO: 7 and the protein sequence of IDS was provided in SEQ ID NO: 11. […] A group of wild-type control mice was used as control. The AAV9-CB-IDS vector for treating MPSII was administrated as described in Example 1, at a dose of 3×10^13 vg/kg (i.e. 3E13 group) or 1×10^14 vg/kg (i.e. 1E14 group) to mice pre-treated with aspirin injection. One month after the AAV9-CB-IDS injection, the IDS enzyme activity was detected in brain (FIG. 8).

[2] = system: Gluc expression from AAV9-CB-Gluc in brain; assay: Gluc mRNA and enzymatic activity in brain after AAV9-CB-Gluc with aspirin (Example 6); format: in vivo, mice; details: for enzymatic activity level of Gluc, up-regulation vs non-treatment group: p<0.01 (FIG. 7B)
Description: (§1) Expression of exogenous gene was detected in mice either pre-treated with Aspirin, or co-administered with Aspirin. AAV9-CB-Gluc was prepared according to methods provided in Example 1, except that nucleic acid sequence for CB promoter (see SEQ ID NO: 3) was used. In brief, Aspirin was pre-administrated to a group of mice at 50 mg/kg by intraperitoneal injection for 7 days, followed by administration of AAV9-CB-Gluc (5×10^13 vg/kg) at day 8. In comparison, a group of mice without pre-administration of Aspirin was administrated with Aspirin at 50 mg/kg simultaneously in combination with AAV9-CB-Gluc. 15 days after the AAV9-CB-Gluc administration, the mice were sacrificed, and brain and liver were collected for determination of expression Gluc.

[3] = system: IFN-α; assay: Serum IFN-α ELISA after AAV9 injection with aspirin at different doses (Example 2); format: in vivo, C57BL/6J mice; details: Day 3 post AAV9 injection, vs control group (FIG. 2)
Description: (§2) Male C57BL/6J mice (purchased from Shanghai Jiesijie Experimental Animals Co., Ltd.) (n=4) with an average weight of 20 g were divided into six groups. Aspirin was used for intraperitoneal injection for 7 consecutive days (Day −7 to Day −1), at doses of 1 mg/kg, 15 mg/kg, 30 mg/kg, 50 mg/kg, 100 mg/kg, respectively, to five groups of mice. The sixth group was injected with 5% castor oil (in PBS buffer (catalogue number: 02-024-1ACS, BI)) as a control. On Day 0, AAV9-Lxp3.3-Gluc virus was injected intravenously (5×10^12 vg/kg) to each mouse in every group, and expression of luciferase was detected from Day 1 onwards.
(§3) Blood samples of mice were collected by retro-orbital bleeding. Half of the volume of blood samples was added with sodium citrate at a ratio of 1:9 for anticoagulation, mixed, centrifuged within 30 minutes (6000 rpm, 5 mins), and the supernatant was collected as the mouse plasma, for detection of the expression of Gluc. The remaining blood sample was left at room temperature for 2 hours to separate the serum, centrifuged at 6000 rpm for 15 min, and the supernatant was collected as the mouse serum sample. The contents of IFN-α and IFN-β were determined by using Mouse IFN-β ELISA kit (720131-2, Shanghai Mlbio Co., Ltd.), LEGEND MAX™ Mouse IFN-β ELISA Kit (439407, BioLegend), and Mouse IFN-α ELISA kit (706291-2, Shanghai Mlbio Co., Ltd.).

[4] = system: Gluc expression from AAV9-CB-Gluc in liver; assay: Gluc mRNA and enzymatic activity in liver after AAV9-CB-Gluc with aspirin (Example 6); format: in vivo, mice
Description: as §1

[5] = system: expression level of the transgene (AAV); assay: Co-administration of AAV and aspirin, transgene expression (preliminary); format: in vivo; details: co-administration of AAV and aspirin in one formulation or separate formulations at the same time; preliminary results
Excerpt: Studies have been conducted for co-administration of AAV and aspirin either in one formulation or in separate formulations but at the same time.

[6] = system: IFN-α; assay: Serum IFN-α ELISA after AAV8, AAV9 or AAV843 injection in aspirin-treated mice (Example 4); format: in vivo, C57BL/6J mice
Description: as §3
(§4) The injection dose of 50 mg/kg aspirin was used in further study of AAV-mediated expression of exogenous genes by three different AAV serotypes. The study design was similar to that of Example 2. Briefly, for each AAV serotype (i.e., AAV8-Lxp3.3-Gluc, AAV9-Lxp3.3-Gluc, or AAV843-Lxp3.3-Gluc), male C57BL/6J mice (purchased from Shanghai Jiesijie Experimental Animals Co., Ltd.) (n=4) with an average weight of 20 g were divided into two groups. One group was injected with aspirin at 50 mg/kg for 7 consecutive days, and the other group was injected with 5% castor oil (in PBS buffer (catalogue number: 02-024-1ACS, BI)) as a control. On Day 8, 5×10^12 vg/kg of AAV8-Lxp3.3-Gluc, AAV9-Lxp3.3-Gluc, or AAV843-Lxp3.3-Gluc virus (diluted in 150-200 μl PBS) was delivered to each mouse by tail vein injection. Blood sample were collected and expression level of luciferase was detected following the same methods as described in Example 2.
(§5) In the study described in Example 3, the level of IFN-α and IFN-β were determined by using Mouse IFN-β ELISA kit (720131-2, Shanghai Mlbio Co., Ltd.), LEGEND MAX™ Mouse IFN-β ELISA Kit (439407, BioLegend), and Mouse IFN-α ELISA kit (706291-2, Shanghai Mlbio Co., Ltd.) according to the user's manual.

[7] = system: expression of luciferase from AAV843-Lxp3.3-Gluc; assay: Luciferase expression after AAV843-Lxp3.3-Gluc injection in aspirin-treated mice (Example 3); format: in vivo, C57BL/6J mice
Description: as §3
(§6) Coelenterazine h (40906ES02, Shanghai Yeasen Biotech Co., Ltd.) buffer was prepared first: to 500 mL of ultra-pure water was added 29.72 g of sodium ascorbate, and then 50 mL of Tris-HCl (1 mol/L, pH 7.4). […] of the above working solution is added to a […], and the relative light unit (RLU) was detected with a Synergy H1 multifunctional microplate reader.
(§7) The injection dose of 50 mg/kg aspirin was used in further study of AAV-mediated expression of exogenous genes by three different AAV serotypes. […] Blood sample were collected and expression level of luciferase was detected following the same methods as described in Example 2.

[8] = system: expression of luciferase from AAV9-Lxp3.3-Gluc virus; assay: AAV9-mediated luciferase (Gluc) expression in plasma of mice pre-treated with aspirin at different doses (Example 2); format: in vivo, C57BL/6J mice
Description: as §2
Blood samples of mice were collected by retro-orbital bleeding. […] The contents of IFN-α and IFN-β were determined by using Mouse IFN-β ELISA kit (720131-2, Shanghai Mlbio Co., Ltd.), LEGEND MAX™ Mouse IFN-β ELISA Kit (439407, BioLegend), and Mouse IFN-α ELISA kit (706291-2, Shanghai Mlbio Co., Ltd.).
as §6

[9] = system: expression of luciferase from AAV8-Lxp3.3-Gluc; assay: Luciferase expression after AAV8-Lxp3.3-Gluc injection in aspirin-treated mice (Example 3); format: in vivo, C57BL/6J mice
Description: as §3, §6, §7

[10] = system: expression of luciferase from AAV9-Lxp3.3-Gluc; assay: Luciferase expression after AAV9-Lxp3.3-Gluc injection in aspirin-treated mice (Example 3); format: in vivo, C57BL/6J mice
Description: as §3, §6, §7

[11] = system: IFN-β; assay: Serum IFN-β ELISA after AAV8, AAV9 or AAV843 injection in aspirin-treated mice (Example 4); format: in vivo, C57BL/6J mice
Description: as §3, §4, §5

## CC(=O)Oc1ccccc1C(=O)O [aspirin, Acetylsalicylic acid]
[1]; aspirin pre-treatment (50 mg/kg) + AAV9-CB-IDS 3×10^13 vg/kg, one month after injection (FIG. 8)
  IDS enzyme activity in brain vs wild type mice group: even higher than that of the wild type mice group
[1]; aspirin pre-treatment + AAV9-CB-IDS 3×10^13 vg/kg vs AAV9-CB-IDS alone at 3×10^13 vg/kg (p<0.05) or 10^14 vg/kg, one month (FIG. 8)
  IDS enzyme activity in brain vs group receiving no aspirin but only AAV9-CB-IDS: significantly higher
[2]; aspirin 50 mg/kg simultaneously with AAV9-CB-Gluc, 15 days after AAV (FIG. 7A)
  mRNA level of Gluc, up-regulation vs non-treatment group: 2.95 fold
[2]; aspirin 50 mg/kg simultaneously with AAV9-CB-Gluc, 15 days after AAV
  enzymatic activity level of Gluc, up-regulation vs non-treatment group: 3.55 fold
[2]; pre-injection of aspirin 50 mg/kg i.p. 7 days, AAV9-CB-Gluc 5×10^13 vg/kg day 8, 15 days after AAV, p<0.01 (FIG. 7A)
  mRNA level of Gluc, up-regulation vs non-treatment group: 5.5 fold
[2]; pre-injection of aspirin 50 mg/kg i.p. 7 days, AAV9-CB-Gluc 5×10^13 vg/kg day 8, 15 days after AAV
  enzymatic activity level of Gluc, up-regulation vs non-treatment group: 7.13 fold
[3]; aspirin 50 mg/kg
  level of IFN-α on Day 3: significantly lower
[3]; aspirin 100 mg/kg
  level of IFN-α on Day 3: significantly lower
[4]; aspirin 50 mg/kg simultaneously with AAV9-CB-Gluc (FIG. 7C)
  mRNA level of Gluc vs non-treatment group: even lower than that of the non-treatment group
[4]; aspirin 50 mg/kg simultaneously with AAV9-CB-Gluc (FIG. 7D)
  level of enzymatic activity of Gluc vs non-treatment group: not significantly different
[4]; pre-injection of aspirin 50 mg/kg i.p. 7 days, AAV9-CB-Gluc 5×10^13 vg/kg, p<0.01 (FIG. 7D)
  level of enzymatic activity of Gluc, up-regulation vs non-treatment group: 1.95 fold
[4]; pre-injection of aspirin 50 mg/kg i.p. 7 days, AAV9-CB-Gluc 5×10^13 vg/kg, p<0.05 (FIG. 7C)
  level of mRNA of Gluc, up-regulation vs non-treatment group: 1.43 fold
[5]
  expression level of the transgene: increase the expression level of the transgene
[6]; after AAV8 injection, aspirin 50 mg/kg 7 days, control significantly higher except Day 31 (FIG. 4A)
  IFN-α level: maintained at a relatively low level
[6]; after AAV9 injection, aspirin 50 mg/kg 7 days, vs control group (FIG. 5A)
  IFN-α level: significantly lower than that in the control group
[6]; after AAV843 injection, Day 31, aspirin treatment vs control group (FIG. 6A)
  IFN-α level: no significant difference
[6]; after AAV843 injection, aspirin 50 mg/kg 7 days, vs control group, before Day 31 (FIG. 6A)
  IFN-α level: significantly lower than those in the control group
[7]; aspirin 50 mg/kg 7 consecutive days, AAV843-Lxp3.3-Gluc 5×10^12 vg/kg tail vein, vs control (FIG. 3C)
  transduction in vivo (expression of luciferase): remarkably promote
[7]; aspirin 50 mg/kg 7 days, AAV843-Lxp3.3-Gluc, control groups also peaked on Day 15
  day of peak expression of luciferase after AAV injection: 15 days
[8]; 100 mg/kg of aspirin i.p. 7 days before AAV9-Lxp3.3-Gluc 5×10^12 vg/kg i.v., compared with other doses (FIG. 1)
  expression level of luciferase: highest expression level
[8]; aspirin i.p. 7 consecutive days at 1, 15, 30, 50, 100 mg/kg before AAV9-Lxp3.3-Gluc 5×10^12 vg/kg i.v., comparison across dose groups (FIG. 1)
  expression level of luciferase: dose dependent increase
[9]; aspirin 50 mg/kg 7 consecutive days, AAV8-Lxp3.3-Gluc 5×10^12 vg/kg tail vein, vs control (FIG. 3A)
  transduction in vivo (expression of luciferase): remarkably promote
[9]; aspirin 50 mg/kg 7 days, AAV8-Lxp3.3-Gluc, control groups also peaked on Day 15
  day of peak expression of luciferase after AAV injection: 15 days
[10]; aspirin 50 mg/kg 7 consecutive days, AAV9-Lxp3.3-Gluc 5×10^12 vg/kg tail vein, vs control (FIG. 3B)
  transduction in vivo (expression of luciferase): remarkably promote
[10]; aspirin 50 mg/kg 7 days, AAV9-Lxp3.3-Gluc, control groups also peaked on Day 15
  day of peak expression of luciferase after AAV injection: 15 days
[11]; after AAV8 injection, aspirin 50 mg/kg 7 days (FIG. 4B)
  IFN-β level in the control group versus the aspirin treatment group: always significantly higher than that in the aspirin treatment group
[11]; after AAV9 injection, aspirin 50 mg/kg 7 days, Day 1 to Day 31, significantly different from control Day 1 to Day 23 (FIG. 5B)
  IFN-β level: maintained at a low level
[11]; after AAV843 injection, Day 31, aspirin treatment vs control group (FIG. 6B)
  IFN-β level: no significant difference
[11]; after AAV843 injection, aspirin 50 mg/kg 7 days, vs control group, before Day 31 (FIG. 6B)
  IFN-β level: significantly lower than those in the control group
